According to publication PMC7698045, “Milk Protein-Derived Antioxidant Tetrapeptides as Potential Hypopigmenting Agents” (Antioxidants, 2020):
Where two headings read alike, the source gives them in different places. Ends that are not written are not given here. Peptide text beside a SMILES is read from it.

Experiments:
[1] = test system: B16F10 cells; assay: Melanogenesis inhibition test in α-MSH-stimulated B16F10 cells; assay type: cell-based
Description: (§1) B16F10 cells were cultured in DMEM that was supplemented with 10% (v/v) fetal bovine serum (FBS), 50 μg/mL streptomycin and 50 U/mL penicillin at 37 °C in 5% CO2. Mel-Ab cells were cultured in DMEM with 10% (v/v) FBS, 100 nM 12-O-tetradecanoylphorbol-13-acetate (TPA), 1 nM cholera toxin (CT), 50 μg/mL streptomycin and 50 U/mL penicillin at 37 °C in 5% CO2.
(§2) The effects of the inhibitors (peptides and arbutin) on melanin formation in Mel-Ab cells and B16F10 cells were evaluated. B16F10 cells (5 × 10^3 per well) were cultured in 96-well plates and incubated with the samples (1, 5, 10, 50 and 100 μM) in a complete medium that contained α-MSH for 4 days. Then, the medium was collected from each well and the optical densities were measured at 405 nm. Mel-Ab cells (5 × 10^4 per well) were cultured in 6-well plates and incubated with the samples (1, 5, 10, 50 and 100 μM) in the complete medium for 3 days. Next, the treated cells were then dissolved in 1 mL of 1 N NaOH at 100 °C for 30 min and centrifuged for 20 min at 16,000 g, after which the optical densities of the supernatants were measured at 400 nm.
The percentage of melanin content was calculated via following equation: % melanin content = (A/B) × 100 where A represents the optical density of the sample-treated group and B represents the optical density of the untreated control group. […]

[2] = test system: Mel-Ab cells; assay: Melanogenesis inhibition test in Mel-Ab cells; assay type: cell-based, mouse
Description: as §1, §2
The percentage of melanin content was calculated via following equation: % melanin content = (A/B) × 100 where A represents the optical density of the sample-treated group and B represents the optical density of the untreated control group. All the tests were conducted independently three times. Each experiment was performed in triplicate and the results were averaged.

[3] = Lipid peroxidation ferric thiocyanate assay (antioxidant activity); conditions: lipid peroxidation inhibition after 24 h, 50 °C, dark, peptide 250 μM; for antioxidant activity relative to the original peptide (enhancement): original peptide set to 1.0
Description: Linoleic acid and Tween 20 were mixed in 0.1 M sodium phosphate buffer (pH 7.0) to prepare a linoleic acid emulsion (50 mM). […] These reaction mixtures were tightly capped by septa in glass vials and kept at 50 °C for 30 h under dark conditions. To evaluate the antioxidant activity of the oligopeptides by the quantification of lipid peroxidation inhibition, the ferric thiocyanate assay was used with some modifications. An aliquot of the reaction mixture (25 µL) was withdrawn at intervals and mixed with 1.175 mL of 75% ethanol, 25 µL of 20 mM ferrous chloride in 3.5% HCl and 25 µL of 30% ammonium thiocyanate. The absorbance was measured at 500 nm after 3 min, which was when the color development by the ferric thiocyanate complex was maximal. Each experiment was conducted in triplicate and the results were averaged.

[4] = test system: phosphorylation of CREB at serin-133; conditions: 100 µM, α-MSH-treated B16F10 cells
Description: For the Western blot analysis, B16F10 cells were seeded into 6-well plates. After 24 h, the cultured medium was replaced with serum-free DMEM and incubated for another 24 h. Then, the cells were treated with samples in new serum-free media and incubated for 0–360 min. Cells were lysed with RIPA buffer containing protease inhibitor cocktail and phosphatase inhibitor cocktail. Protein concentration was determined using the Bicinchoninic acid (BCA) protein assay kit (Thermo Scientific, Rockford, IL, USA). Protein (20 μg) samples were separated on 4–20% polyacrylamide gels and then transferred to polyvinylidene fluoride (PVDF) membranes (#1704156, Bio-Rad, Hercules, CA, USA), which were blocked with 5% nonfat dry milk in Tris buffered saline solution containing 0.1% Tween 20. The blots were incubated with the primary antibodies at 4 °C overnight. Membrane-bound primary antibodies were detected using HRP-conjugated secondary antibodies and chemiluminescent substrate. Digital images of the blotted membranes were obtained and analyzed using ChemiDoc XRS+ Systems with Image Lab Software (Version 5.1) (Bio-Rad). The relative protein expression of p-cAMP response element-binding protein (CREB) was normalized to that of CREB and glyceraldehyde 3-phosphate dehydrogenase (GAPDH).

[5] = test system: mushroom tyrosinase; assay: Mushroom tyrosinase inhibition test with L-DOPA as substrate; assay type: biochemical; conditions: for IC50: L-DOPA 2.5 mM, mushroom tyrosinase 100 µg/mL (428 U/mL), 25 °C, 10 min, read-out: IC50 (tyrosinase inhibitory activity); for effect on dopachrome formation (UV-Vis scanning): dopachrome at 475 nm, L-DOPA and mushroom tyrosinase
Description: A mushroom tyrosinase inhibition test was carried out with L-DOPA as a substrate. Two hundred fifty microliters of phosphate buffer (0.1 M, pH 6.8), 250 µL of 2.5 mM L-DOPA, 200 µL of water and 25 µL of oligopeptide in DMSO at various concentrations were mixed. The reaction mixture was incubated at 25 °C for 10 min after the addition of 25 µL of aqueous mushroom tyrosinase solution (100 µg/mL, 428 U/mL) and then the UV absorbance was measured at 475 nm. The following equation was used to calculate the percentage of mushroom tyrosinase inhibition: % Tyrosinase Inhibition = (1 − A/B) × 100 where A represents the absorbance at 475 nm of the reaction mixture that contained the inhibitor and B represents the absorbance at 475 nm of a reference reaction mixture that contained DMSO instead of the inhibitor. The concentration of half-maximal inhibitory activity (IC50) values were determined by measuring the tyrosinase inhibitory activity at various peptide concentrations (10, 50, 100, 250 and 500 µM). Each experiment was performed in triplicate and the results were averaged.

| Compound | inhibition of melanin production (in words) ([1]; α-MSH treated B16F10 cells, various concentrations) | reduction of melanin content ([2]; 100 µM, 3 days) | antioxidant activity relative to the original peptide (enhancement) [3] | suppression of melanin production ([1]; 50 µM, B16F10 cells) | suppression of phosphorylation of CREB ([4]; 10 min) | suppression of phosphorylation of CREB ([4]; 180 min) | reduction of melanin content ([2]; 5 μM) | tyrosinase inhibition mode (Lineweaver-Burk plot) ([5]; Km values increase and Vmax values decrease with increasing peptide concentration) | IC50 [5] | effect on dopachrome formation (UV-Vis scanning) [5] | decrease of antioxidant activity relative to the original peptide [3] |
| --- | --- | --- | --- | --- | --- | --- | --- | --- | --- | --- | --- |
| CC[C@H](C)[C@H](NC(=O)[C@H](Cc1c[nH]cn1)NC(=O)[C@H](CCSC)NC(C)=O)C(=O)N[C@@H](CCCNC(=N)N)C(N)=O [Ac-MHIR] (Ac-MHIR-NH2) | barely inhibits melanin production | – | – | – | – | – | – | – | – | – | – |
| MHIRL-NH2 [MHIRL, methionine-histidine-isoleucine-arginine-leucine amide] | – | 28% | – | – | – | – | – | – | – | – | – |
| Methionine-histidine-isoleucine-arginine amide [MHIR] | – | 57% | 1.3–1.8 times | up to 80% | 18% | 37% | 30% | mixed-mode of inhibition | 83 µM | sufficiently suppress dopachrome formation | – |
| histidine-isoleucine-arginine-leucine amide [HIRL] | – | 33% | 1.3–1.8 times | – | – | – | – | – | 70 µM | sufficiently suppress dopachrome formation | more than 50% |
